Experimental data reported in patent publication US4999344A, “Phosphatidyl treatment of rapidly proliferating cells” (priority 1988, dated 1991).

Legend:
[1] = Sedimentation of liposomes by low speed / differential centrifugation; type: physicochemical; conditions: label used as liposome marker
Text: In both FIGS. 4a and 4b, pellets 1, 2, and 3 were obtained by differential centrifugation.

[2] = tested on: N4TG1 neuroblastoma cells; assay: Fate of liposomal PI after incubation with N4TG1 neuroblastoma cells; type: in vitro ADME, mouse
Text: Lipids were dried and resuspended exactly as described previously in the Biochem. Biophys. Res. Commun. article. In the use of ([^14 C]linoleoyl)PI, ([^14 C]oleoyl)PI, or ([^14 C]arachidonoyl)PI the phospholipids were used in a 2:1 molar combination with cholesterol. Cholesterol was included in the liposomes in order to minimize the net transfer of cholesterol into or out of the cells. ([^3 H]myo-Inositol)PI was used as a tracer (1%) with bovine liver PI as the bulk phospholipid carrier for forming liposomes. [^3 H]Linoleic acid was used as a tracer (4%) in liposomes containing linoleic acid:PI (yeast or animal): cholesterol, 2:1. […]
In order to extract lipids, methanol and chloroform were added to cell homogenates to obtain a single phase of CHCl3 :CH3 OH:H2 O (1:2:1 8, v/v) containing 0.1M HCl, according to Bligh and Dyer in Can. […] The lipid compositions of the cell extracts were determined by thin layer chromatography on silica gel precoated sheets (E. M. Reagents; E. Merck, FRG) using the following solvent systems: (a) chloroform:methanol: acetic acid:water, 25:15:4:2 (v/v) (used for phospholipid separation): (b) 1-propanol:4.3M ammonia containing 10 mM EDTA, 65:35 (v/v) (used for PIP and PIP2 separations); and (c) chloroform:acetone, 1:1 (v/v) (used for DG and fatty acid separations). […]

[3] = tested on: N4TG1 neuroblastoma cells; assay: Thymidine uptake (cell viability) by N4TG1 neuroblastoma cells incubated with liposomes; type: cell-based, mouse; conditions: FIG. 1
Description: Plant PI(S) is from the Sigma Chemical Company and plant PI(A) is from Avanti Polar Lipids, Inc. and ([^14 C]linoleoyl)PI is the synthetic PI.
FIGS. 3a and 3b show the effect of increasing the molar fraction of synthetic PI or animal PI in liposomes on (a) thymidine uptake (FIG. 3a) and myo-inositol uptake (FIG. 3b) by N4TG1 neuroblastoma cells, .circle. 100 μm PI, 200 μm PI, 300 μm PI. Cells were incubated with liposomes made up of the various combinations indicated (mol %) of ([^14 C]linoleoyl)PI and animal PI.
FIGS. 9a, b, c, and d show the effect of inhibitors on PI toxicity to tumor cells.
Lipids were dried and resuspended exactly as described previously in the Biochem. Biophys. Res. Commun. article. In the use of ([^14 C]linoleoyl)PI, ([^14 C]oleoyl)PI, or ([^14 C]arachidonoyl)PI the phospholipids were used in a 2:1 molar combination with cholesterol. Cholesterol was included in the liposomes in order to minimize the net transfer of cholesterol into or out of the cells. ([^3 H]myo-Inositol)PI was used as a tracer (1%) with bovine liver PI as the bulk phospholipid carrier for forming liposomes. [^3 H]Linoleic acid was used as a tracer (4%) in liposomes containing linoleic acid:PI (yeast or animal): cholesterol, 2:1. It was shown that it is not necessary to have cholesterol present to observe the cytotoxicity.
The N4TG1 mouse neuroblastoma cell line was obtained from Dr. Peter Chiang (Walter Reed Army Institute of Research) and cultured using Dulbecco's minimal essential medium (MEM: Grand Island Biological Co.) containing 10% fetal bovine serum. Cells were routinely started from frozen cultures every 6 weeks in order to assure that the cells used were from low passage cultures.
(§1) [methyl-^3 H]Thymidine (New England Nuclear) incorporation was carried out using 96-well plates (Costar). Thymidine incorporation was used as an assay for cell viability, since in the previous studies described in the Biochem. Biophys. Res. Commun. (1983) article, other methods of assessing cell viability, including microscopic evaluation in the presence of trypan blue, gave identical results. Fifty μl of cell suspension (4×10^5 cells/ml) were added to duplicate wells. Approximately 18 hours later 25 μl of the PI-containing liposomes were added to give a final concentration of phospholipid of 200 μM (approximately, 14 nmol/2-3×10^4 cells). At various intervals after PI addition [^3 H]thymidine, 1 μCi/well was added and incubated with the cells for 3 hours. Cells were collected on glass fiber filter mats by a mechanical cell harvester (Skatron, Inc.) using a combination of scraping and fluid turbulence (saline). Filters were dried and the material was solubilized by incubation overnight with NCS tissue solubilizer and counted in the presence of Spectrafluor (Amersham).
In FIGS. 1 and 2 the curves were quite reproducible and representative experiments are shown. Because of fluctuations (<5%) in control values, the data were "normalized" by comparison with daily controls and expressed as "percentage of control in absence of PI." Typical values for uptake of [^3 H]thymidine by controls are shown in the inserts in FIGS. 1 and 2.

N4TG1 Neuroblastoma = assay: LD50 to tumor cells of various preparations of PI; type: cell-based; conditions: Mus musculus
Text: (§2) FIGS. 5 through 7 a show comparisons of the effects of liposomes having varous phospholipids containing defined fatty acids on [^3 H-methyl]-thymidine uptake. Thymidine uptake is a method of assessing cell viability of cultured cells, and decreased thymidine uptake occurs as a result of cytotoxicity caused by contact with toxic substances. , MRC-5 normal embryonic lung fibroblasts; , W1-38SV/40 transformed embryonic human lung fibroblasts; .quadrature..quadrature., SK-N-MC human glioblastoma cells and , N4TG1 mouse neuroblastoma cells.
as §1
(§3) Res Commun. article cited above. The LD50 values for some of the cell lines reported in the Biochem. Biophys. Res. Commun. article are compared with LD50 values obtained using Avanti plant PI or synthetic ([14 C]linoleoyl)PI.

WI-38/SV-40 [4] = assay: LD50 to tumor cells of various preparations of PI; type: cell-based; conditions: Homo sapiens
Text: as §2, §1, §3

SK-N-MC [5] = assay: LD50 to tumor cells of various preparations of PI; type: cell-based; conditions: Homo sapiens
Text: as §2, §1, §3

MRC-5 = assay: Liposomal uptake by normal and tumor cells; type: cell-based; conditions: normal cells MRC-5
Description: as §2, with “Thymidine” for “FIGS. 5 through 7 a show comparisons of the effects of liposomes having varous phospholipids containing defined fatty acids on [^3 H-methyl]-thymidine uptake. Thymidine”
(§4) Cells were treated with liposomes containing synthetic preparations of PI (left frames) or PC (right frames) containing palmitic acid in the sn-1 position and either [^14 C]linoleic acid in the sn-2 position (FIGS. 5 and 5a) or [^14 C]arachidonic acid in the sn-2 position (FIGS. 6 and 6a) or [^14 C]oleic acid in the sn-2 position (FIGS. 7 and 7a). The liposomes were comprised of the indicated phospholipids (PI or PC) and cholesterol in a molar ratio of 2:1.
(§5) The data in Table 5 was obtained concomitantly with the toxicity studies in FIGS. 5-7a.

HT-144 [6] = assay: Liposomal uptake by normal and tumor cells; type: cell-based, human; conditions: tumor cells HT-144
Description: as §4, §5

N4TG1 = assay: Liposomal uptake by normal and tumor cells; type: cell-based, mouse; conditions: tumor cells N4TG1
Description: as §2, with “Thymidine” for “FIGS. 5 through 7 a show comparisons of the effects of liposomes having varous phospholipids containing defined fatty acids on [^3 H-methyl]-thymidine uptake. Thymidine”
as §4, §5

WI-38/SV-40 [7] = assay: Liposomal uptake by normal and tumor cells; type: cell-based, human
Description: as §2, with “Thymidine” for “FIGS. 5 through 7 a show comparisons of the effects of liposomes having varous phospholipids containing defined fatty acids on [^3 H-methyl]-thymidine uptake. Thymidine”
as §4, §5

SK-N-MC [8] = assay: Liposomal uptake by normal and tumor cells; type: cell-based, human; conditions: tumor cells SK-N-MC
Description: as §2, with “Thymidine” for “FIGS. 5 through 7 a show comparisons of the effects of liposomes having varous phospholipids containing defined fatty acids on [^3 H-methyl]-thymidine uptake. Thymidine”
as §4, §5

HT-144 [9] = assay: LD50 to tumor cells of various preparations of PI; type: cell-based; conditions: Homo sapiens
Description: as §1, §3

Human marrow CFV-GM = assay: Colony forming units of granulocytes and monocytes; type: cell-based; conditions: Monocyte, 192 h
[10] = tested on: MCF-7 wild-type (WT) breast cancer cells; assay: TCA-precipitable 2-[3H]methylthymidine incorporation; type: cell-based; conditions: thymidine incorporation
Description: In order to further assess cell viability between wild-type (MCF-7 wild-type cell line) (WT) and multi-drug resistant MCF-7 ADR^R (MDR^R) breast cancer cells, tests involving TCA-precipitable 2-[^3 H]methylthymidine incorporation were employed. MCF-7 WT and ADR^R cells were plated (Day 1) at 1500 cells/well in 96-well cluster plates. On Day 2, phospholipid preparations were added to triplicate cultures. On Day 7, 2-[^3 H]methylthymidine was added and the cells harvested as described (Jett et al., Cancer Res. (1985) 45:4810-4815), using 5% TCA as the wash buffer. Results were expressed as the geometric mean of triplicate cultures.

[11] = tested on: multi-drug resistant MCF-7 ADR^R breast cancer cells; assay: as above; type: cell-based; conditions: thymidine incorporation
Description: MCF-7 cells were continuously exposed to increasing concentrations of adriamycin resulting in multidrug-resistance (mdr) as a stable genetic trait (Batist et al., J. Biol. Chem. (1986) 261:[…]). The mdr cells are referred to as ADR^R cells. MCF-7 WT (wild-type) and ADR^R cells were plated at 1000 cells/well (9.6 cm^2) in RPMI 1640 supplemented with 10% fetal bovine serum (day 1). Plant PI (0.5-150 μM) in the form of multilamellar vesicles (Jett and Alving, in Methods in Enzymology 141B (eds. Conn. P.M. and Means A.R.) 459-466, Academic Press, Orlando, FL 1987) or adriamycin (1-2000 nM) was added to the cultures on day 2. At day 8-10, the fluid was removed and clones were fixed, stained and counted. Colonies were scored positive if >40 cells/clone Adriamycin (10-500 nM) or plant PI (20-200 μM) was added at the time of cell plating. At day 8-10, the colony forming units of granulocytes and monocytes (CFV-GM) were counted. The results were the average of triplicate experiments.
In order to further assess cell viability between wild-type (MCF-7 wild-type cell line) (WT) and multi-drug resistant MCF-7 ADR^R (MDR^R) breast cancer cells, tests involving TCA-precipitable 2-[^3 H]methylthymidine incorporation were employed. MCF-7 WT and ADR^R cells were plated (Day 1) at 1500 cells/well in 96-well cluster plates. […] Results were expressed as the geometric mean of triplicate cultures.

[12] = tested on: tumor cells from cultured cell lines; conditions: earlier articles; cited from earlier work

With `CCCCC/C=C\C/C=C\CCCCCCC[14C](=O)O[C@H](COC(=O)CCCCCCCCCCCCCCC)COP(=O)(O)O[C@@H]1[C@H](O)[C@H](O)[C@@H](O)[C@H](O)[C@H]1O` [([^14 C]linoleoyl)PI, sn-3-phosphatidyl(1-palmitoyl-2-[1'-^14 C]linoleoyl)myo-inositol] the “liposomes sedimented by low speed centrifugation” value [1] was 8%, the “liposomes which did not sediment” value [1] was 92% and the “DG (diglycerides)” value [2] was 0.8. The “effectiveness vs plant PI from Sigma” value [3] was “slightly more effective”, the IC50 (N4TG1 Neuroblastoma; 3 hours) was 25 µM and the IC50 (N4TG1 Neuroblastoma; 8 hours) was 25 µM. It also gave an IC50 (WI-38/SV-40 [4]; 3 hours) of 65 µM, an IC50 (WI-38/SV-40 [4]; 8 hours) of 35 µM and an IC50 (SK-N-MC [5]; 3 hours) of 39 µM. For the same molecule, the IC50 (SK-N-MC [5]; 8 hours) was 38 µM, the Liposomal uptake (MRC-5) was 0.09 nMoles of phospholipid/1 × 10^5 cells and the Liposomal uptake (HT-144 [6]) was 0.39 nMoles of phospholipid/1 × 10^5 cells. The Liposomal uptake (N4TG1) was 0.39 nMoles of phospholipid/1 × 10^5 cells, the Liposomal uptake (WI-38/SV-40 [7]) was 0.39 nMoles of phospholipid/1 × 10^5 cells and the Liposomal uptake (SK-N-MC [8]) was 0.45 nMoles of phospholipid/1 × 10^5 cells. For the same molecule, the IC50 (HT-144 [9]; 3 hours) was 25 µM and the IC50 (HT-144 [9]; 8 hours) was 25 µM.

For `COc1cccc2c1C(=O)c1c(O)c3c(c(O)c1C2=O)C[C@@](O)(C(=O)CO)C[C@@H]3O[C@H]1C[C@H](N)[C@H](O)[C@H](C)O1` [adriamycin], the IC50 (Human marrow CFV-GM) was 0.08 µM.

In the case of `CCCCC/C=C\C/C=C\CCCCCCCC(=O)O[C@H](COC(=O)CCCCCCCCCCCCCCC)COP(=O)([O-])OCC[N+](C)(C)C`, the toxicity [10] is reported as “not as toxic as synthetic phosphatidylinositol containing the identical fatty acids” and the toxicity [11] is reported as “not as toxic as synthetic phosphatidylinositol containing the identical fatty acids”.

In the case of `CCCCCCCC/C=C\CCCCCCCC(=O)O[C@H]1CC[C@@]2(C)C(=CC[C@H]3[C@@H]4CC[C@H]([C@H](C)CCCC(C)C)[C@@]4(C)CC[C@@H]32)C1` [cholesteryl oleate], the “anti-tumor effect / selective killing of tumor cells” value [12] is listed as “reduced the anti-tumor effect”.

For `CCCCCCCCCCCCCCCCCC(=O)OCC(COP(=O)([O-])OCC[N+](C)(C)C)OC(=O)CCCCCCCCCCCCCCCCC` (centres unmarked) [distearoyl phosphatidyl choline, reference compound], the toxicity [10] was “no toxicity” and the toxicity [11] was “no toxicity”.
